2 compounds from patent US11753407B2, “Compounds for treating spinal muscular atrophy” (PTC Therapeutics, Inc., priority 2012, dated 2023) can be followed below.

In assay [1] the test system is Smn protein produced from the SMN2 gene. The experiment in a line: Smn protein in tissues of neonatal Δ7 SMA mice. The conditions noted are these: neonatal SMA Δ7 homozygous knockout mice, IP QD PND 3 to PND 9, brain, spinal cord. The format is in vivo. Here is the method:
This Smn protein assay compares tissues from test compound treated mice with those from DMSO vehicle treated mice to determine the increase in levels of Smn protein produced from the human SMN2 gene.
Protocol. The tissue samples in Safe-Lock tubes are weighed and the volume of RIPA buffer containing the protease inhibitor cocktail is added based on the weight to volume ratios for each type of tissue: Brain (50 mg/mL), Muscle (50 mg/mL) and Spinal Cord (25 mg/mL).
Tissues are homogenized using the TissueLyzer by bead milling. 5 mm stainless steel beads are added to the sample and shaken vigorously for 5 minutes at 30 Hz in the TissueLyzer. […] Fluorescence for each well of the plate at 665 nm and 620 nm is measured on an EnVision multilabel plate reader (Perkin-Elmer). The total protein in the tissue homogenate is measured using the BCA assay according to the manufacturer's protocol.
The normalized fluorescence signal is calculated for each sample, Blank and vehicle control well by dividing the signal at 665 nm by the signal at 620 nm. Normalizing the signal accounts for possible fluorescence quenching due to the matrix effect of the tissue homogenate. […] The ΔF value for each tissue sample well is divided by the total protein quantity (determined using the BCA assay) for that tissue sample. […]

In assay [2] the test system is neonatal SMA Δ7 homozygous knockout mice. The experiment in a line: Survival of neonatal Δ7 SMA mice. The format is in vivo. Here is the method: The change in the number of surviving mice over time is used to determine whether treatment with a test compound improves survival.
Protocol. SMA Δ7 homozygous knockout mice are dosed intraperitoneally (IP) with test compound or vehicle (100% DMSO) QD from PND 3 until the dose regimen is switched to an oral dose BID in 0.5% hydroxypropylmethyl cellulose (HPMC) with 0.1% Tween-80 at a dose 3.16-fold higher than the dose used for IP and later switched to an oral dose QD in 0.5% hydroxypropylmethyl cellulose (HPMC) with 0.1% Tween-80 at a dose 6.32-fold higher than the dose used for IP. The number of surviving mice in each group is recorded every day and plotted as a percent of total number of mice. Tissues of SMA Δ7 and age-matched heterozygous mice are collected for the measurement of Smn protein levels and processed as detailed in Example 10. The total protein normalized Smn protein levels measured in the tissues are plotted as a percent of those in the age-matched heterozygous mice tissues, with the Smn level in heterozygous mice set to 100 percent. The level of Smn protein in the test compound treated mice tissue relative to that in heterozygous mice tissue is indicated as a percent value above each bar in the graph.

As to `COc1ccc(-c2cc(=O)n3cc(N4CCNCC4)ccc3n2)cc1OC` [Cpd 6, 2-(3,4-dimethoxyphenyl)-7-(piperazin-1-yl)-4H-pyrido[1,2-a]pyrimidin-4-one], in assay [1] (muscle, skin (FIGS. 12a-d)), the “total protein normalized Smn level” value was “dose dependently increased in brain, spinal cord, muscle, and skin tissues”. For the same compound, the survival entry in assay [2] (IP QD PND 3 to PND 30, then orally BID from PND 31 until study end (FIG. 15a)) is on record as “improved compared to vehicle treated mice”.

In the case of `Cc1cn2nc(-c3cc(=O)n4cc(N5CCN(C)CC5)ccc4n3)cc2c(C)n1` [Cpd 170, 2-(4,6-dimethylpyrazolo[1,5-a]pyrazin-2-yl)-7-(4-methylpiperazin-1-yl)-4H-pyrido[1,2-a]pyrimidin-4-one], the “total protein normalized Smn level” value in assay [1] (muscle (FIGS. 12e-g)) is “dose dependently increased”. In addition, the survival result in assay [2] (IP QD PND 3 to PND 23, then orally BID from PND 24 until study end (FIG. 15b)) is reported as “improved compared to vehicle treated mice”.
